In patent publication US20100247579A1, “THERAPEUTIC AGENT FOR CANCER” (priority 2007, published 2010):
Structures can show the parent of a compound that is named as a salt. Where two headings read alike, the source gives them in different places.

Legend:
[1] = system: lymphocytes derived from cancer patient No. PT009 expanded with OKT3 and CH-296; assay: Resistance to anticancer agents, WST-1 GI50 on cultured lymphocytes of cancer patient No. PT009; assay type: cell-based, human; settings: day 10 of culture with OKT3 and CH-296, 20 hours with drug
Description: After that, the suspension was stained by the trypan blue staining method to calculate the viable cell count, and then subjected to each experiment.
(§1) On the other hand, the IL-2/5HRPMI was added to the control group in 50 μL/well each.
(§2) These culture plates were incubated at 37° C. for 20 hours in the presence of 5% CO2. After the incubation, WST-1 (Premix WST-1 Cell Proliferation Assay System, manufactured by Takara Bio Inc.) was added in 20 μL/well each to each well of the plate, and incubated in the presence of 5% CO2 at 37° C. for 4 hours. The plates after the incubation were centrifuged at 500×g at room temperature for 5 minutes. After the centrifugation, 100 μL of the supernatant was collected from each well, and the absorbance was measured at an absorption wavelength of 450 nm and a control wavelength of 630 nm [hereinafter referred to as the absorbance (450 nm-630 nm)] using a microplate reader (manufactured by Bio-Rad Laboratories, Inc., Model Number 680XR), and then the specific absorbance (450 nm-630 nm) was calculated according to the following formula.
(§3) Specific absorbance (450 nm-630 nm)=Absorbance of Test Cell Addition Group (450 nm-630 nm)−Absorbance of Control Group (450 nm-630 nm) Formula 2: […]

[2] = system: expanded lymphocytes derived from a human healthy donor; assay: Resistance to anticancer agents, WST-1 GI50 on cultured lymphocytes of a human healthy donor; assay type: cell-based; settings: for GI50: Homo sapiens, Lymphocyte
Description: as §1, §2, §3
Here, a group where only OKT3 was immobilized to the culture equipment in the expansion of the lymphocytes was also set.
However, in the case of paclitaxel, a human AB type serum was used as a solvent for dilution, and for other drugs, 5HRPMI was used for dilution.

Row | GI50 ([1]; Homo sapiens, Lymphocyte, read-out: GI50) [µg/mL] | SMILES | GI50 [1] [µg/mL] | GI50 (μg/mL) Initial Stimulation OKT3 + CH-296 ([2]; healthy donor lymphocytes expanded with OKT3 + CH-296) [µg/mL] | GI50 (μg/mL) Initial Stimulation OKT3 ([2]; healthy donor lymphocytes expanded with OKT3 alone) [µg/mL] | GI50 ([2]; healthy donor lymphocytes expanded with OKT3 + CH-296, read-out: GI50 (μg/mL) Initial Stimulation OKT3 + CH-296) [µg/mL] | GI50 ([2]; healthy donor lymphocytes expanded with OKT3 alone, read-out: GI50 (μg/mL) Initial Stimulation OKT3) [µg/mL]
1 |  | N.N.O=C([O-])C1(C(=O)[O-])CCC1.[Pt+2] [Carboplatin, carboplatin] | 215.5 | 161.31 | 116.16 |  | 
2 |  | N.N.[Cl][Pt][Cl] [Cisplatin, cisplatin] | 3.7 |  |  |  | 
3 | 0.5 | COc1cccc2c1C(=O)c1c(O)c3c(c(O)c1C2=O)C[C@@](O)(C(=O)CO)C[C@@H]3O[C@H]1C[C@H](N)[C@H](O)[C@H](C)O1 [Doxorubicin Hydrochloride, doxorubicin hydrochloride] |  |  |  | 0.41 | 0.25
